Tests used:
[1] = Ex vivo human plasma stability / release kinetic study of CBD prodrugs; type: in vitro ADME; details: human blood plasma with citrate buffer; for prodrug left after 24 h / concentration of cannabidiol (B1) released from prodrug after 24 h / concentration of cannabidiol (B1) at start of release: 37° C.; for stability / conversion of prodrug in plasma: over 24 h; for concentration of cannabidiol (B1) released from prodrug after 24 h: HPLC; for concentration of cannabidiol (B1) at start of release: initial value of the release range
Procedure: For the preparation of citrate buffer solution (pH=7.6), 100 ml of HPLC water, 0.25 M sucrose and 40 mM sodium citrate were taken.
To construct a calibration curve, […] different concentration such as 0.78, 1.56, 3.12, 6.25, 12.5, 25, 50 mg/ml of CBD based prodrugs and the parent cannabidiol were prepared. All sample were analyzed by 4.6×250 mm, 5 μm end capped RP-C18 column and the mobile phase containing buffer (0.1% formic acid in water and 0.1% formic acid in acetonitrile) and in some case methanol were used at the flow rate of 1 mL/min at column temperature of 25° C. at 210 nm, 190 nm, 254 nm wavelength range. A volume of 10 μL was injected and a total run time of the assay range was between 15-40 mins. The markers were estimated by HPLC using gradient technique.
For the preparation of plasma sample, fresh 20 ml of human blood was taken to which 2 ml of citrate buffer was added and then vortex it for about 5 minutes. Immediately after this, the mixture was centrifuged at 8000 rpm for 20 minutes, resulting in the separation of two-layer like RBC and plasma (ethical approval number 1EC/GMC/Cat A/2020/267).
To check the stability of prodrugs in plasma, stock solution of prodrug in DMSO (5 mg/2 ml) was prepared and placed at −20° C. The plasma sample of 50 μl was taken in different eppendorf's followed by the addition of 5 μl prodrug solution, vertex for 2 min., incubated at 37° C. at the different time point (Schedule provided in Table 1). After 24 h, all the sample were added with 200 μl MeOH with the help of vertex for about 2 minutes followed by centrifuge for about 10 minutes with 4000 rpm and two layers of sample were separated. The upper layer of methanol sample was taken and immediately the methanol sample was analyzed by 4.6×250 mm, 5 μm end capped RP-C18 column and the mobile phase containing buffer (0.1% formic acid in water and 0.1% formic acid in acetonitrile) and in some case methanol were used at the flow rate of 1 mL/min at column temperature of 25° C. at 210 nm, 190 nm, 254 nm wavelength range. A volume of 10 μL was injected and a total run time of the assay range was 15-40 mins. The markers were estimated by HPLC using gradient technique. The results are depicted in FIG. 1 to FIG. 10.

[2] = published studies; cited from earlier work

SMILES	prodrug left after 24 h [1]	concentration of prodrug at the initial time point (Pre-treatment) [1] [%]	stability / conversion of prodrug in plasma [1]	further results
C=C(C)[C@@H]1CCC(C)=C[C@H]1c1c(O)cc(CCCCC)cc1OC(=O)CN1CCOCC1 [Compound A1a, O-(2-morpholinoacetyl) cannabidiol]	5.5%	49.1		
C=C(C)[C@@H]1CCC(C)=C[C@H]1c1c(OC(=O)CN2CCOCC2)cc(CCCCC)cc1OC(=O)CN1CCOCC1 [Compound A1b, O,O-bis-(2-morpholinoacetyl) cannabidiol]			immediately converted into mono substituted CBD derivative	
C=C(C)[C@@H]1CCC(C)=C[C@H]1c1c(O)cc(CCCCC)cc1OC(=O)CN1CCC(c2ccccc2)CC1 [Compound A2a, O-{2-(4-phenylpiperidin-1-yl)acetyl} cannabidiol]			quite stable	
C=C(C)[C@@H]1CCC(C)=C[C@H]1c1c(O)cc(CCCCC)cc1OC(=O)CN1CCC(O)CC1 [Compound A3a, O-{2-(4-hydroxypiperidin-1-yl)acetyl} cannabidiol]	below detection limit	49.2		
C=C(C)[C@@H]1CCC(C)=C[C@H]1c1c(O)cc(CCCCC)cc1OC(=O)CN1CCN(C2CC2)CC1 [Compound A5a, O-{2-(4-cyclopropylpiperazin-1-yl)acetyl} cannabidiol]	11.1%	51.4		concentration of cannabidiol (B1) released from prodrug after 24 h [1]: 17.4%; concentration of cannabidiol (B1) at start of release [1]: 0%
C=C(C)[C@@H]1CCC(C)=C[C@H]1c1c(OC(=O)CN2CCN(C3CC3)CC2)cc(CCCCC)cc1OC(=O)CN1CCN(C2CC2)CC1 [Compound A5b, O,O-bis-{2-(4-cyclopropylpiperazin-1-yl)acetyl} cannabidiol]			immediately converted into mono substituted CBD derivative	time after which release of CBD (B1) started [1]: > 16 h; concentration of cannabidiol (B1) released from prodrug after 24 h [1]: 8.8%
C=C(C)[C@@H]1CCC(C)=C[C@H]1c1c(O)cc(CCCCC)cc1OC(=O)CN1CCN(C(C)C)CC1 [Compound A6a, O-{2-(4-isopropylpiperazin-1-yl)acetyl} cannabidiol]	11.1%	51.3		concentration of cannabidiol (B1) released from prodrug after 24 h [1]: 26.8%; concentration of cannabidiol (B1) at start of release [1]: 0.6%
C=C(C)[C@@H]1CCC(C)=C[C@H]1c1c(O)cc(CCCCC)cc1OC(=O)CN1CCN(C)CC1 [Compound A7a, O-{2-(4-methylpiperazin-1-yl)acetyl} cannabidiol]	0.7%	49.6		
C=C(C)[C@@H]1CCC(C)=C[C@H]1c1c(O)cc(CCCCC)cc1OC(=O)CN1CCN(c2ccccc2)CC1 [Compound A8a, O-{2-(4-phenylpiperazin-1-yl)acetyl} cannabidiol]			quite stable	
C=C(C)[C@@H]1CCC(C)=C[C@H]1c1c(O)cc(CCCCC)cc1OC(=O)CN1CCCC1 [Compound A10a, O-{2-(pyrrolidin-1-yl)acetyl} cannabidiol]	1.9%	51.3		
C=C(C)[C@@H]1CCC(C)=C[C@H]1c1c(O)cc(CCCCC)cc1O [Compound B1, cannabidiol]				plasma protein binding [2]: > 94%

Reference: patent US20260076982A1, “Prodrugs of Cannbidiol [CBD]-Type Phytocannabinoids and a Process for Preparation Thereof” (priority 2022, published 2026)
